Measured values taken from PMC9019904, “AD Informer Set: Chemical tools to facilitate Alzheimer's disease drug discovery” (Alzheimer's & Dementia : Translational Research & Clinical …, 2022).
≈ marks a conversion by molar mass, not a printed value.

Assays:
[1] = Kinetic solubility in aqueous buffer pH 7.4 by total chemiluminescent nitrogen determination (Analiza); conditions: aqueous buffer, pH 7.4, aqueous buffer, kinetic from dmso stock
[2] = system: HMC3 (human microglia) cell line; test: pHrodo-myelin phagocytosis/cell viability high content imaging assay: phagocytosis signal; assay type: cell-based
In short: (§1)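 Mouse BV2 and human HMC3 microglia given pHrodo-myelin; phagocytosis and cell viability imaged together by high content imaging about 22 hours after myelin addition. Three measurements extracted, including intensity increase and decrease marking early and later apoptosis.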

[3] = system: BV2 (mouse microglia) cell line; test: as above; assay type: cell-based
In short: as §1

[4] = system: BV2 (mouse microglia) cell line; test: pHrodo-myelin phagocytosis/cell viability high content imaging assay: viability (cell count, nuclear area, nuclear intensity)
In short: (§2)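 BV2 mouse and HMC3 human microglia were treated with compounds at 10 μM for 48 h, with pHrodo-myelin present for the last 20 h. Viability was imaged as total cell count per well and mean nuclear intensity per cell. Values are means of duplicates, normalized to untreated wells as % control.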

[5] = system: HMC3 (human microglia) cell line; test: as above
In short: as §2

Row | Compound | solubility kinetic [1] [µM] | further results
1 | C[C@H](NC(=O)c1sccc1OCc1ccc(Cl)cc1)c1ccccc1 [AS1949490] | < 2.1 | Inhibition of human microglial phagocytosis at 10 μM (<70% control) ([2]; 10 μM, HMC3): Y (The compound was found to inhibit phagocytosis (response threshold: <70% control) when human immortalized microglial cells were dosed at 10 μM (Y: yes))
2 | CC/C(=C(\c1ccc(O)cc1)c1ccc(OCCN(C)C)cc1)c1ccccc1 [Afimoxifene] | 19.5 (≈ 7.56 µg/mL) | Stimulation of mouse microglial phagocytosis at 10 μM (>150% control) ([3]; BV2, 10 μM): Y (The compound was found to stimulate phagocytosis (response threshold: >150% control) when murine immortalized microglial cells were dosed at 10 μM (Y: yes))
3 | COc1cc(N2CCC(N3CCN(C)CC3)CC2)ccc1Nc1ncc(Cl)c(Nc2ccccc2P(C)(C)=O)n1 [Brigatinib] | 123 (≈ 72.1 µg/mL) | Mouse microglial cytotoxicity at 10 μM (<70% control) ([4]; BV2, 10 μM): Y (The compound was found to be cytotoxic (cell count threshold: <70% control) when murine immortalized microglial cells were dosed at 10 μM (Y: yes)); Stimulation of mouse microglial phagocytosis at 10 μM (>150% control) ([3]; BV2, 10 μM): Y (The compound was found to stimulate phagocytosis (response threshold: >150% control) when murine immortalized microglial cells were dosed at 10 μM (Y: yes))
4 | Cc1ccccc1NC(=O)CN1C(=O)N/C(=C/c2ccccc2OCc2ccc(C(=O)O)cc2)C1=O [CHEMBL1416302] | 26.6 (≈ 12.9 µg/mL) | Stimulation of mouse microglial phagocytosis at 10 μM (>150% control) ([3]; BV2 cells, 10 μM): Y (The compound was found to stimulate phagocytosis (response threshold: >150% control) when murine immortalized microglial cells were dosed at 10 μM (Y: yes))
5 | CCS(=O)(=O)N1CCN(c2ccc(Nc3ncc(C(N)=O)c(NC4CC4)n3)cc2)CC1 [Cerdulatinib] | 1.8 (≈ 0.802 µg/mL) | Mouse microglial cytotoxicity at 10 μM (<70% control) ([4]; BV2, 10 μM, cell count <70% control): Y (The compound was found to be cytotoxic (cell count threshold: <70% control) when murine immortalized microglial cells were dosed at 10 μM (Y: yes)); Human microglial cytotoxicity at 10 μM (<70% control) ([5]; HMC3, 10 μM, cell count <70% control): Y (The compound was found to be cytotoxic (cell count threshold: <70% control) when human immortalized microglial cells were dosed at 10 μM (Y: yes)); Inhibition of mouse microglial phagocytosis at 10 μM (<70% control) ([3]; BV2, 10 μM): Y (The compound was found to inhibit phagocytosis (response threshold: <70% control) when murine immortalized microglial cells were dosed at 10 μM (Y: yes))
6 | Cc1ccc(-n2nc(C(C)(C)C)cc2NC(=O)Nc2ccc(OCCN3CCOCC3)c3ccccc23)cc1 [Doramapimod (BIRB 796)] | 3.6 (≈ 1.9 µg/mL) | Stimulation of mouse microglial phagocytosis at 10 μM (>150% control) ([3]; 10 μM, BV2): Y (The compound was found to stimulate phagocytosis (response threshold: >150% control) when murine immortalized microglial cells were dosed at 10 μM (Y: yes))
7 | CNc1nc(C)nc(N[C@H]2CCC[C@@H](C(=O)NCc3ccc(C#N)cc3C(F)(F)F)C2)n1 [GSK2256294A] | 148 (≈ 66 µg/mL) | Inhibition of human microglial phagocytosis at 10 μM (<70% control) ([2]; HMC3, 10 μM): Y (The compound was found to inhibit phagocytosis (response threshold: <70% control) when human immortalized microglial cells were dosed at 10 μM (Y: yes))
8 | CC(C)c1ccc(/C=N/NC(=O)c2ccc(O)cc2)cc1 [GSK 4716] | 215 (≈ 60.6 µg/mL) | –
9 | Cl.O=C(O)Cc1cccc(OCCCN(Cc2cccc(C(F)(F)F)c2Cl)CC(c2ccccc2)c2ccccc2)c1 [GW 3965 HCl] | 4.1 | –
10 | Cc1cccc(-c2nn3c(c2-c2ccnc4ccc(C(N)=O)cc24)CCC3)n1 [Galunisertib] | 249 (≈ 92.1 µg/mL) | Stimulation of mouse microglial phagocytosis at 10 μM (>150% control) ([3]; BV2, 10 μM): Y (The compound was found to stimulate phagocytosis (response threshold: >150% control) when murine immortalized microglial cells were dosed at 10 μM (Y: yes))
11 | c1ccc(-c2nn3c(c2-c2ccnc4cc(OCCN5CCOCC5)ccc24)CCC3)nc1 [LY2109761] | 114 (≈ 50.6 µg/mL) | Inhibition of human microglial phagocytosis at 10 μM (<70% control) ([2]; HMC3, 10 μM): Y (The compound was found to inhibit phagocytosis (response threshold: <70% control) when human immortalized microglial cells were dosed at 10 μM (Y: yes))
12 | Cc1cc(NC(=O)Nc2ccc(F)c(F)c2)n(-c2ccccc2)n1 [ML 297] | 49.9 (≈ 16.4 µg/mL) | Stimulation of mouse microglial phagocytosis at 10 μM (>150% control) ([3]; 10 μM, BV2): Y (The compound was found to stimulate phagocytosis (response threshold: >150% control) when murine immortalized microglial cells were dosed at 10 μM (Y: yes))
13 | Oc1cc(CNC(=S)/C=C/c2cc(O)c(O)c(Br)c2)cc(O)c1O [NT157] | 79.7 (≈ 32.9 µg/mL) | Mouse microglial cytotoxicity at 10 μM (<70% control) ([4]; 10 μM, BV2): Y (The compound was found to be cytotoxic (cell count threshold: <70% control) when murine immortalized microglial cells were dosed at 10 μM (Y: yes)); Human microglial cytotoxicity at 10 μM (<70% control) ([5]; 10 μM, HMC3): Y (The compound was found to be cytotoxic (cell count threshold: <70% control) when human immortalized microglial cells were dosed at 10 μM (Y: yes)); Stimulation of mouse microglial phagocytosis at 10 μM (>150% control) ([3]; 10 μM, BV2): Y (The compound was found to stimulate phagocytosis (response threshold: >150% control) when murine immortalized microglial cells were dosed at 10 μM (Y: yes))
14 | O=c1[nH]c(=O)n([C@H]2C[C@H](O)[C@@H](CO)O2)cc1/C=C/Br [RP101 (Brivudine)] | 199 (≈ 66.2 µg/mL) | –
15 | CCOC(=O)N1CCC(Nc2c(NCCN3CCN(c4cccc(C(F)(F)F)c4)CC3)c(=O)c2=O)CC1 [Squarunkin A] | 0.7 (≈ 0.366 µg/mL) | –
16 | C=CC[C@@H]1/C=C(\C)C[C@H](C)C[C@H](OC)[C@H]2O[C@@](O)(C(=O)C(=O)N3CCCC[C@H]3C(=O)O[C@H](/C(C)=C/[C@@H]3CC[C@@H](O)[C@H](OC)C3)[C@H](C)[C@@H](O)CC1=O)[C@H](C)C[C@@H]2OC [Tacrolimus] | 95.5 (≈ 76.8 µg/mL) | Mouse microglial cytotoxicity at 10 μM (<70% control) ([4]; 10 μM, BV2): Y (The compound was found to be cytotoxic (cell count threshold: <70% control) when murine immortalized microglial cells were dosed at 10 μM (Y: yes)); Stimulation of mouse microglial phagocytosis at 10 μM (>150% control) ([3]; 10 μM, BV2): Y (The compound was found to stimulate phagocytosis (response threshold: >150% control) when murine immortalized microglial cells were dosed at 10 μM (Y: yes))
17 | Cc1ccccc1C(=O)Nc1ccc(C(=O)N2CCCC(O)c3cc(Cl)ccc32)c(C)c1 (centres unmarked) [Tolvaptan] | 31.8 (≈ 14.3 µg/mL) | Stimulation of mouse microglial phagocytosis at 10 μM (>150% control) ([3]; BV2, 10 μM): Y (The compound was found to stimulate phagocytosis (response threshold: >150% control) when murine immortalized microglial cells were dosed at 10 μM (Y: yes))
18 | CC1(C)CCC(CN2CCN(c3ccc(C(=O)NS(=O)(=O)c4ccc(NCC5CCOCC5)c([N+](=O)[O-])c4)c(Oc4cnc5[nH]ccc5c4)c3)CC2)=C(c2ccc(Cl)cc2)C1 [Venetoclax (ABT-199)] | 6.3 (≈ 5.47 µg/mL) | Stimulation of mouse microglial phagocytosis at 10 μM (>150% control) ([3]; BV2, 10 μM): Y (The compound was found to stimulate phagocytosis (response threshold: >150% control) when murine immortalized microglial cells were dosed at 10 μM (Y: yes))
19 | Cc1cnc(Nc2ccc(F)cc2Cl)nc1-c1c[nH]c(C(=O)N[C@H](CO)c2cccc(Cl)c2)c1 [Vertex 11e] | 1.4 (≈ 0.701 µg/mL) | –
20 | COc1cc(C(=O)NS(=O)(=O)c2ccccc2C)ccc1Cc1cn(C)c2ccc(NC(=O)OC3CCCC3)cc12 [Zafirlukast] | 129 (≈ 74.4 µg/mL) | –
21 | O=c1oc2ccccc2cc1-c1cn2cc(Cc3ccc(F)cc3)sc2n1 [iMDK] | < 1.1 | Mouse microglial cytotoxicity at 10 μM (<70% control) ([4]; 10 μM, BV2): Y (The compound was found to be cytotoxic (cell count threshold: <70% control) when murine immortalized microglial cells were dosed at 10 μM (Y: yes))

More lines, main results first:

Row | solubility kinetic [1] [µM] | Compound | further results
22 | 126 (≈ 47.6 µg/mL) | CN1C[C@H](Nc2cnn(C)c(=O)c2Br)C[C@H](c2ccccc2)C1 [GSK4027] | –
23 | 5.9 (≈ 2.27 µg/mL) | CN(C)CCCn1c(N)c(-c2nc3ccccc3[nH]2)c2nc3ccccc3nc21 [INI-43] | Inhibition of human microglial phagocytosis at 10 μM (<70% control) ([2]; 10 μM, HMC3): Y (The compound was found to inhibit phagocytosis (response threshold: <70% control) when human immortalized microglial cells were dosed at 10 μM (Y: yes))
24 | 24.3 (≈ 7.5 µg/mL) | Clc1ccc(N/N=C(\c2ccccc2)c2ccccn2)nc1 [JIB-04] | Mouse microglial cytotoxicity at 10 μM (<70% control) ([4]; 10 μM, BV2): Y (The compound was found to be cytotoxic (cell count threshold: <70% control) when murine immortalized microglial cells were dosed at 10 μM (Y: yes)); Stimulation of mouse microglial phagocytosis at 10 μM (>150% control) ([3]; 10 μM, BV2): Y (The compound was found to stimulate phagocytosis (response threshold: >150% control) when murine immortalized microglial cells were dosed at 10 μM (Y: yes))
25 | 119 (≈ 48.2 µg/mL) | CC(C)(O)c1coc(S(=O)(=O)NC(=O)Nc2c3c(cc4c2CCC4)CCC3)c1 [MCC950] | –
26 | 2.7 (≈ 0.87 µg/mL) | O=C(NNc1nc2cc(F)ccc2n2cccc12)c1cnccn1 [SC144] | Mouse microglial cytotoxicity at 10 μM (<70% control) ([4]; 10 μM, BV2): Y (The compound was found to be cytotoxic (cell count threshold: <70% control) when murine immortalized microglial cells were dosed at 10 μM (Y: yes)); Stimulation of mouse microglial phagocytosis at 10 μM (>150% control) ([3]; 10 μM, BV2): Y (The compound was found to stimulate phagocytosis (response threshold: >150% control) when murine immortalized microglial cells were dosed at 10 μM (Y: yes))
27 | 150 (≈ 73.9 µg/mL) | COCCOCCOC(=O)N[C@@H](CC(C)C)C(=O)N[C@@H](Cc1ccccc1)C(=O)C(=O)NC1CC1 [SNJ-1945] | –
28 | 14.3 (≈ 7.96 µg/mL) | N#Cc1ccc(COC[C@H]2O[C@@H](n3c(NCc4ccc(Cl)c(Cl)c4)nc4c(N)ncnc43)[C@H](O)[C@@H]2O)cc1 [VER-155008] | Mouse microglial cytotoxicity at 10 μM (<70% control) ([4]; 10 μM, BV2): Y (The compound was found to be cytotoxic (cell count threshold: <70% control) when murine immortalized microglial cells were dosed at 10 μM (Y: yes)); Stimulation of mouse microglial phagocytosis at 10 μM (>150% control) ([3]; 10 μM, BV2): Y (The compound was found to stimulate phagocytosis (response threshold: >150% control) when murine immortalized microglial cells were dosed at 10 μM (Y: yes))
29 | 4.6 (≈ 1.69 µg/mL) | CCn1c(=O)/c(=C2\Sc3ccccc3N2C)s/c1=C\c1ccccn1 [YM-08] | –
30 | 270 (≈ 92.2 µg/mL) | O=C(O)c1cc2nc(-c3ccc(Cl)cc3)cc(C(F)(F)F)n2n1 [ZINC00184372] | Stimulation of mouse microglial phagocytosis at 10 μM (>150% control) ([3]; 10 μM, BV2): Y (The compound was found to stimulate phagocytosis (response threshold: >150% control) when murine immortalized microglial cells were dosed at 10 μM (Y: yes))
